The text below walks through data of patent US20230203059A1, “MACROCYCLIC JAK INHIBITOR AND USES THEREOF” (Biopolar Hongye (Guangdong) Pharmaceutical Co. Ltd., priority 2020, published 2023).

What all share (format): biochemical
Test [1] addresses JAK2 (Homo sapiens, UniProt O60674). Kind of test: JAK kinase activity, homogeneous time-resolved fluorescence (JAK2 reaction system). Conditions: ATP 2 μM, JAK2 protein 0.01 ng/μL. The essentials: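 IC50 derived by Hill-equation fit of the 665/615 nm time-resolved fluorescence ratio after EDTA-containing detection mix with anti-phosphosubstrate antibody. Preceding 1 h reaction contained 2 μM ATP, 0.01 ng/μL JAK2, substrate, 50 mM Hepes pH 7.0, 5 mM MgCl2, 1 mM DTT.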

For test [2], the target named is JAK1 (Homo sapiens, UniProt P23458). In words: JAK kinase activity, homogeneous time-resolved fluorescence (JAK1 reaction system). Conditions: ATP 2 μM, JAK1 protein 0.2 ng/μL; read-out: JAK 1 activity. The essentials: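 HTRF assay: JAK1 (0.2 ng/μL) with 2 μM ATP and substrate in 50 mM Hepes pH 7.0, 5 mM MgCl2, 1 mM DTT, 1 h. Phospho-substrate antibody/XL-615 detection with EDTA; 665/615 nm ratio, excitation 320 nm. IC50 from Hill-type fit against no-enzyme and no-compound controls.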
JAK1, sequence (P23458 whole entry): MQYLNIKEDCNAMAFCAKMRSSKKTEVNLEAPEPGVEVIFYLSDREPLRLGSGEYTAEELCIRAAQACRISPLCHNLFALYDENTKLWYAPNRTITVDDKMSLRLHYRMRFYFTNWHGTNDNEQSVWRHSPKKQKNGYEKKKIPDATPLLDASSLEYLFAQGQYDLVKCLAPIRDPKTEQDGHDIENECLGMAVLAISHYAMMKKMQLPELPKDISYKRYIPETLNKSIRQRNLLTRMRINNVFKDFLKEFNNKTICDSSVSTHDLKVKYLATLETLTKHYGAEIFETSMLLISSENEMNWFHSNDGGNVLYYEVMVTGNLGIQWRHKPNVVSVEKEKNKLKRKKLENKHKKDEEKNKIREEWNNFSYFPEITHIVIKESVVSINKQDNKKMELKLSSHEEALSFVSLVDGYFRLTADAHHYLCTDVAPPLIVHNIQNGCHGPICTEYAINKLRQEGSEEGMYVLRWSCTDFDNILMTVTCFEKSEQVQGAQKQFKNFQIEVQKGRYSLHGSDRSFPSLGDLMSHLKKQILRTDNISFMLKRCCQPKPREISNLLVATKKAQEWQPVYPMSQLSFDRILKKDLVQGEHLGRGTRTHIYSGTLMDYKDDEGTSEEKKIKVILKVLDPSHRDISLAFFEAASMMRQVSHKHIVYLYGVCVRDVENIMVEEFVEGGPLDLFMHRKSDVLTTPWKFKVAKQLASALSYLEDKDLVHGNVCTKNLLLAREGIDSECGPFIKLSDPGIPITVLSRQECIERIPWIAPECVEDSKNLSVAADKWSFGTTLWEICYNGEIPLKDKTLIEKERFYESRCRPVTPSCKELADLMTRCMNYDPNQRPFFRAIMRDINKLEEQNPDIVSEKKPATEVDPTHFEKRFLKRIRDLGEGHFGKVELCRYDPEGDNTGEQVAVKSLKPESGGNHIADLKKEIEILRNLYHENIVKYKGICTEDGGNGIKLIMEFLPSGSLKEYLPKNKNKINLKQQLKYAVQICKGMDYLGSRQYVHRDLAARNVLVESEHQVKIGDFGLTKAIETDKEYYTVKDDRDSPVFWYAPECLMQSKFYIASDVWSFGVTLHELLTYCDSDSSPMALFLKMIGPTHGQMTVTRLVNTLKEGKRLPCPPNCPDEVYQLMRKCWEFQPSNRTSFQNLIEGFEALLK

The target of test [3] is TYK2 (Homo sapiens, UniProt P29597). In words: JAK kinase activity, homogeneous time-resolved fluorescence (TYK2 reaction system). As to conditions: ATP 2 μM, TYK2 protein 0.2 ng/μL; read-out: TYK 2 activity. The essentials:
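Activity read as the 665 nm/615 nm ratio after adding EDTA-containing detection mix with anti-phospho-substrate antibody and XL-615. Beforehand, 0.2 ng/μL TYK2, 2 μM ATP, substrate and compound reacted 1 h in pH 7.0 Hepes buffer with MgCl2 and DTT. IC50 fitted with Hill-slope equation.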

In test [4] the target is T1, JAK3 (Homo sapiens, UniProt P52333).
T1 sequence (P52333 1-1124): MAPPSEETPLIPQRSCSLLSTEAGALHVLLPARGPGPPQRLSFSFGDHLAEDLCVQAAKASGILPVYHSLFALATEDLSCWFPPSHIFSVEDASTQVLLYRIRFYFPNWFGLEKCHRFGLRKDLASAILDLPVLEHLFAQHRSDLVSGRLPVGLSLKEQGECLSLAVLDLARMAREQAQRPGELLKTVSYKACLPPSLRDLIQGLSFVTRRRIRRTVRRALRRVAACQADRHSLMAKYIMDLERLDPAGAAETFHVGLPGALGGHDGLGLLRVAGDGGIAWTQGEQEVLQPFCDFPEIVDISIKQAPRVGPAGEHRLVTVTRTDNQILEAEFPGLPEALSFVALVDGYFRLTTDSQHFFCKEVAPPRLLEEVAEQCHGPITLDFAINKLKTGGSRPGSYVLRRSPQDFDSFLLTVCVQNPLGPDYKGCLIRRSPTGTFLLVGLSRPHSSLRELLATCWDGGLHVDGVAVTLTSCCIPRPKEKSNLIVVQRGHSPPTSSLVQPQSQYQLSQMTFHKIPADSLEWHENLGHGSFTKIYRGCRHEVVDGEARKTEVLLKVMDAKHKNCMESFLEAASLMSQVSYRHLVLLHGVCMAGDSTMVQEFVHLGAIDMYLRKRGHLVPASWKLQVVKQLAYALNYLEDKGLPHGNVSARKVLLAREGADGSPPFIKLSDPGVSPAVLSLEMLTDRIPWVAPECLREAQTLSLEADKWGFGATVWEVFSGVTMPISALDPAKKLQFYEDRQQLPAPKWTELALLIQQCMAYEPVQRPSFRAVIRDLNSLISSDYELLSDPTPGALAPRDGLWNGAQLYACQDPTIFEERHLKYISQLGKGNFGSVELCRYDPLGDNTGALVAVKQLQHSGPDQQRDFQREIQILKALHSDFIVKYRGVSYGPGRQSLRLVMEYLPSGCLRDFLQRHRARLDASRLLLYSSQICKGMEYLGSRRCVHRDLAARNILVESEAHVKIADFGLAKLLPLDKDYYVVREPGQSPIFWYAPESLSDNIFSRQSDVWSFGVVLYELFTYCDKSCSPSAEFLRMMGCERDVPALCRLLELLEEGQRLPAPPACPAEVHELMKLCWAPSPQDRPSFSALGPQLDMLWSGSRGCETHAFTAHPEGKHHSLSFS
In words: JAK kinase activity, homogeneous time-resolved fluorescence (JAK3 reaction system). Conditions: ATP 2 μM, JAK3 protein 0.04 ng/μL; read-out: JAK 3 activity.

TYK2, sequence (P29597 whole entry): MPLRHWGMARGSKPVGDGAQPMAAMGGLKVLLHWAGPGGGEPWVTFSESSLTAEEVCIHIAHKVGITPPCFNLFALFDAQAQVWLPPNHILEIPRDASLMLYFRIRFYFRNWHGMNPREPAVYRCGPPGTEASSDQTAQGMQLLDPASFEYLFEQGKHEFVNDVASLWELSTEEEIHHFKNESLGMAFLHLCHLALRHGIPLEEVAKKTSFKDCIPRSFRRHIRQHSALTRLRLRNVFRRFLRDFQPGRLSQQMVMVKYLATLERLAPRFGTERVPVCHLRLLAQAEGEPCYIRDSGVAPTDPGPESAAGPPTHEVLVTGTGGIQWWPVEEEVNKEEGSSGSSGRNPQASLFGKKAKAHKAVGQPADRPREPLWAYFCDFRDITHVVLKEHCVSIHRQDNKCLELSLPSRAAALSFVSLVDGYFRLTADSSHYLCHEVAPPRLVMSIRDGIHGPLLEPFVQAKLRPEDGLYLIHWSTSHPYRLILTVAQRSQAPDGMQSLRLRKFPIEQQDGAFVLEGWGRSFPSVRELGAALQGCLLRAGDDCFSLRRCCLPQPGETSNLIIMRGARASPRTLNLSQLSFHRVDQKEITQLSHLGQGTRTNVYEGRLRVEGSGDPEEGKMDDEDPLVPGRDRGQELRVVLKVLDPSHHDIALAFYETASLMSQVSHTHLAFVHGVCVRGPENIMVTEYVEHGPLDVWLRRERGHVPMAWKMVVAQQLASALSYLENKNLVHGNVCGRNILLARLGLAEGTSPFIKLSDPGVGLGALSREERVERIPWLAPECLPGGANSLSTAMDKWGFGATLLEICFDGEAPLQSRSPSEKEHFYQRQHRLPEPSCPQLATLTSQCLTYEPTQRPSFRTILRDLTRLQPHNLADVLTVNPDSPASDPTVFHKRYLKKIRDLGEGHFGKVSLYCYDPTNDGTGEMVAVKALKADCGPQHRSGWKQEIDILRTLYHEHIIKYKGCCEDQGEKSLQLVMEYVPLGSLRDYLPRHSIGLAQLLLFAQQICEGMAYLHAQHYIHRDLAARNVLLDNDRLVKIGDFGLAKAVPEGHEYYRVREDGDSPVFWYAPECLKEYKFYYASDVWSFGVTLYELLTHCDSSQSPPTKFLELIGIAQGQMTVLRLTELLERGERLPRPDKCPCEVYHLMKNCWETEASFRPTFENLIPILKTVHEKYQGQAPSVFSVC
JAK2, sequence (O60674 whole entry): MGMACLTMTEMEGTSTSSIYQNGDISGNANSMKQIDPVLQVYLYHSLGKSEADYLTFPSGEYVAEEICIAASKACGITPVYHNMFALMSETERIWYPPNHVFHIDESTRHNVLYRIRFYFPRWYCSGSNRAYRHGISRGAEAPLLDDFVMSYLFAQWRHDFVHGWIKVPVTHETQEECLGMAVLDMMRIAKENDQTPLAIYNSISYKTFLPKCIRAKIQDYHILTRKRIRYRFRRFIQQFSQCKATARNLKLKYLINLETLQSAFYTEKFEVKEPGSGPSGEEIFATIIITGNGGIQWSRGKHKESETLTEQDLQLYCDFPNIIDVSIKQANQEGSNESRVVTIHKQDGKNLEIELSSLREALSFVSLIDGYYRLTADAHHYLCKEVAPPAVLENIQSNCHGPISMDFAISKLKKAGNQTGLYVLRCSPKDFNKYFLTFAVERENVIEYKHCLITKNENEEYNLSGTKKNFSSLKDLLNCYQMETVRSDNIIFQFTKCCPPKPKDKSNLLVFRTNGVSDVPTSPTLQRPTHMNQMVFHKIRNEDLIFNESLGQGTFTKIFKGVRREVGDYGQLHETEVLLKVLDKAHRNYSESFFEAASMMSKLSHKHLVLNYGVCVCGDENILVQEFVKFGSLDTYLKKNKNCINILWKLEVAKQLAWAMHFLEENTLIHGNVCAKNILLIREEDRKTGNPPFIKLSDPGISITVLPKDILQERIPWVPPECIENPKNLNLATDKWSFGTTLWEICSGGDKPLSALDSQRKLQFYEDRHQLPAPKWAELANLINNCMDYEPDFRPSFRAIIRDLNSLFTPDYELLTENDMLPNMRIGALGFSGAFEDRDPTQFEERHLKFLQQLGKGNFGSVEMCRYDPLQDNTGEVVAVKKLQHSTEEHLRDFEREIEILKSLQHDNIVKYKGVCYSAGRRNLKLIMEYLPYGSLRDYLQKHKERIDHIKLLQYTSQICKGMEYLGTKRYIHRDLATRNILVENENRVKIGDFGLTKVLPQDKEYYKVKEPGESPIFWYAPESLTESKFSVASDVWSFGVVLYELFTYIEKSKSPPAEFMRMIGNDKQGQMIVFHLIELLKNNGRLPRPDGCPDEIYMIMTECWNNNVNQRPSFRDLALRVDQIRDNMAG

For the compound `CC(C)Oc1c(F)cc2cc1COCCCCNC(=O)c1ccc(c(N)c1)-c1ccnc(n1)N2` [Example 85, 1^2-amino-4^5-fluoro-4^4-isopropoxy-6-oxa-3,11-diaza-2(4,2)-pyrimidina-1(1,4),4(1,3)-dibenzenacyclododeca-phan-12-one], the IC50 in test [1] is 0.101 to 1 µM; in test [2] it was 0.101 to 1 µM; in test [3], above 10 µM; in test [4], 0.011 to 0.1 µM.
Turning to `CNc1cc2ccc1-c1ccnc(n1)Nc1ccc(OC(C)C)c(c1)COCCCCNC2=O` [Example 86, 4^4-isopropoxy-1^2-methyalmino-6-o-xa-3,11-diaza-2(4,2)-pyrimidina-1(1,4),4(1,3)-dibenzenacyclododecaphan-12-one], the IC50 in test [1] was 1 to 10 µM; in test [2], 1 to 10 µM; in test [3], above 10 µM; in test [4], 0.101 to 1 µM.
Take `O=C1NCCCCOCc2cc(ccc2OC2CCCC2)Nc2nccc(n2)-c2ccc1cc2[N+](=O)[O-]` [Example 87, 4^4-cyclopentoxy-1^2-nitro-6-oxa-3,11-diaza-2(4,2)-pyrimidina-1(1,4),4(1,3)-dibenzenacyclododecaphan-12-one]: the IC50 is above 10 µM in test [1], above 10 µM in test [2], above 10 µM in test [3] and 0.101 to 1 µM in test [4].
As for `Nc1cc2ccc1-c1ccnc(n1)Nc1ccc(OC3CCCC3)c(c1)COCCCCNC2=O` [Example 88, 1^2-amino-4^4-cyclopentoxy-6-oxa-3,11-diaza-2(4,2)-pyrimidina-1(1,4),4(1,3)-dibenzenacyclododecaphan-12-one], the IC50 in test [1] is 0.011 to 0.1 µM; in test [2], 0.101 to 1 µM; in test [3], 1 to 10 µM; in test [4] it was below 0.01 µM.
As for `O=C1NCCCCOCc2cc(ccc2Br)Nc2nccc(n2)-c2ccc1cc2[N+](=O)[O-]` [Example 89, 4^4-bromo-1^2-nitro-6-oxa-3,11-diaza-2(4,2)-pyrimidina-1(1,4),4(1,3)-di-benzenacyclododecaphan-12-one], the IC50 in test [1] is 1 to 10 µM; in test [2], 1 to 10 µM; in test [3], above 10 µM; in test [4] it was 1 to 10 µM.
As for `Nc1cc2ccc1-c1ccnc(n1)Nc1ccc(Br)c(c1)COCCCCNC2=O` [Example 90, 1^2-amino-4^4-bromo-6-oxa-3,11-diaza-2(4,2)-pyrimidina-1(1,4),4(1,3)-di-benzenacyclododecaphan-12-one], the IC50 was 0.101 to 1 µM in test [1], 0.101 to 1 µM in test [2], above 10 µM in test [3] and 0.011 to 0.1 µM in test [4].
Take `Nc1cc2ccc1-c1ccnc(n1)Nc1ccc(F)c(c1)COc1ccc(cc1)NC2=O` [Example 91, 1^2-amino-4^4-fluoro-6-oxa-3,8-diaza-2(4,2)-pyrimidina-1,7(1,4),4(1,3)-tri-benzenacyclononaphane-9-one]: the IC50 is above 10 µM in test [1], above 10 µM in test [2], above 10 µM in test [3] and 0.101 to 1 µM in test [4].
Turning to `O=C1NCCCCOCc2cc(ccc2OC2CCCC2)Nc2nccc(n2)-c2ccc1cc2F` [Example 92, 4^4-cyclopentoxy-1^2-fluoro-6-oxa-3,11-diaza-2(4,2)-pyrimidina-1(1,4),4(1,3)-dibenzenacyclododecaphan-12-one], the IC50 in test [1] fell in the range of 0.101 to 1 µM; in test [2], 1 to 10 µM; in test [3] it was 1 to 10 µM; in test [4], 0.011 to 0.1 µM.
On to `O=C1NCCCCOCc2cc(cc(F)c2F)Nc2nccc(n2)-c2ccc1cc2[N+](=O)[O-]` [Example 93, 4^4,4^5-difluoro-1^2-nitro-6-oxa-3,11-di-aza-2(4,2)-pyrimidina-1(1,4),4(1,3)-dibenzenacyclododecaphan-12-one], for which the IC50 was 1 to 10 µM in test [1], 1 to 10 µM in test [2], above 10 µM in test [3] and 0.101 to 1 µM in test [4].
On to `Nc1cc2ccc1-c1ccnc(n1)Nc1cc(F)c(F)c(c1)COCCCCNC2=O` [Example 94, 1^2-amino-4^4,4^5-difluoro-6-oxa-3,11-diaza-2(4,2)-pyrimidina-1(1,4),4(1,3)-dibenzenacyclododecaphan-12-one], for which the IC50 in test [1] was 1 to 10 µM; in test [2], 1 to 10 µM; in test [3] it was above 10 µM; in test [4] it was 0.011 to 0.1 µM.
As for `CC1CCNC(=O)c2ccc(c(N)c2)-c2ccnc(n2)Nc2ccc(OC3CC3)c(c2)COC1` (centres unmarked) [Example 95, 1^2-amino-4^4-cyclopropoxy-8-methyl-6-oxa-3, 11-diaza-2 (4,2)-pyrimidina-1(1,4),4(1,3)-dibenzenacyclododecaphan-12-one], the IC50 in test [1] is 0.011 to 0.1 µM; in test [2], 1 to 10 µM; in test [3], 1 to 10 µM; in test [4] it was below 0.01 µM.
With `Nc1cc2ccc1-c1ccnc(n1)Nc1ccc(Oc3ccccc3)c(c1)COCCCCNC2=O` [Example 96, 1^2-amino-4^4-phenoxy-6-oxa-3,11-diaza-2(4,2)-pyrimidin-1(1,4),4(1,3)-dibenzenacyclododecaphan-12-one], the IC50 in test [1] is 1 to 10 µM; in test [2], 1 to 10 µM; in test [3], above 10 µM; in test [4], 0.011 to 0.1 µM.
Turning to `Nc1cc2ccc1-c1ccnc(n1)Nc1ccc(OCC3CCCCC3)c(c1)COCCCCNC2=O` [Example 97, 1^2-amino-4^4-(cyclohexylmethoxy)-6-oxa-3,11-diaza-2(4,2)-pyrimidi-na-1(1,4),4(1,3)-dibenzenacyclodo-decaphan-12-one], the IC50 in test [1] lay within 1 to 10 µM; in test [2], 1 to 10 µM; in test [3], 1 to 10 µM; in test [4] it was 0.011 to 0.1 µM.
For the compound `Nc1cc2ccc1-c1ccnc(n1)Nc1ccc(OC3CC(F)(F)C3)c(c1)COCCCCNC2=O` [Example 98, 1^2-amino-4^4-(3,3-difluorocyclobuto-xy)-6-oxa-3,11-diaza-2(4,2)-pyri-midina-1(1,4),4(1,3)-dibenzenacyclo-dodecaphan-12-one], the IC50 in test [1] lay in the range of 0.101 to 1 µM; in test [2], 0.101 to 1 µM; in test [3], 1 to 10 µM; in test [4], 0.011 to 0.1 µM.
In the case of `O=C1NCCCCOCc2cc(ccc2OCC2CCC2)Nc2nccc(n2)-c2ccc1cc2[N+](=O)[O-]` [Example 99, 4^4-(cyclobutylmethoxy)-1^2-nitro-6-oxa-3,11-diaza-2(4,2)-pyrimidina-1(1,4),4(1,3)-dibenzenacyclodode-caphan-12-one], the IC50 in test [1] is 1 to 10 µM; in test [2], above 10 µM; in test [3], above 10 µM; in test [4] it was 0.101 to 1 µM.
As for `Nc1cc2ccc1-c1ccnc(n1)Nc1ccc(OCC3CCC3)c(c1)COCCCCNC2=O` [Example 100, 1^2-amino-4^4-(cyclobutylmethoxy)-6-oxa-3,11-diaza-2(4,2)-pyrimidina-1(1,4),4(1,3)-dibenzenacyclododeca-phan-12-one], the IC50 in test [1] is 0.101 to 1 µM; in test [2] it was 0.101 to 1 µM; in test [3], 1 to 10 µM; in test [4], below 0.01 µM.
For the compound `O=C1NCCCCOCc2cc(ccc2Oc2cccc(F)c2)Nc2nccc(n2)-c2ccc1cc2[N+](=O)[O-]` [Example 101, 4^4-(3-fluorophenoxy)-1^2-nitro-6-oxa-3,11-diaza-2(4,2)-pyrimidina-(1,4),4(1,3)-dibenzenacyclododeca-phan-12-one], the IC50 is 1 to 10 µM in test [1], above 10 µM in test [2], above 10 µM in test [3] and 1 to 10 µM in test [4].
